Assays:
[1] = test system: MCF-7 hormone receptor positive breast cancer cells; test: Resazurin cytotoxicity assay, MCF-7; assay type: cell-based; conditions: for IC50: Homo sapiens, MCF7, MCF-7 cells, 96 hours treatment, resazurin, read-out: MCF-7 IC50 (μM) ± SD; for SI (selectivity index) for MCF-7: IC50 against MCF12A cells ÷ IC50 against MCF-7 cells
Experimental: (§1) Cytotoxicity and the IC50 of the synthetic compounds were determined using the resazurin assay, [12, 13]. The cancer cells MCF-7 hormone receptor positive breast cancer [estrogen receptor (ER)^+, progesterone receptor (PR)^+, human epidermal growth factor-2 (HER-2)^-; ATCC: HTB-22), HCC70 triple negative breast cancer (TNBC, ER^-, PR^-, HER-2^-; ATCC: CRL-2315) and a non-tumorigenic breast epithelial cell line MCF-12A (ATCC: CRL-10782), were seeded at a density of 5000 cells/well in a 96 well plate and were allowed to adhere overnight at 37°C in a 9% CO2 incubator. The cells were then treated with the synthetic compounds at a concentration range from 15.63–500.00 μM or with a vehicle control [0.2% (v/v) DMSO] for 96 hours at 37°C in a 9% CO2 incubator. Thereafter, […] of resazurin solution was added and the cells were incubated for 2–4 hours at 37°C in a 9% CO2 incubator. The fluorescence was then measured on a Spectramax spectrophotometer with excitation and emission wavelength set at 560 and 590 nm respectively. The experiment was done in technical triplicate and the data were analyzed using GraphPad Prism Inc, (USA) with half-maximal inhibitory concentration (IC50 values) determined by non-linear regression. Selectivity index values for the compounds were calculated as follows: (IC50 of compound against MCF12A cells)÷(IC50 of compound against breast cancer cells) where a SI > 1 is indicative of selective toxicity towards cancer cells vs non-cancerous cells.
(§2) The HCC70 (ATCC-CRL-2315) basal triple-negative breast cancer (TNBC) cell lines and MCF-7 luminal A cancer cell line (ATCC-HTB-22) were purchased from the American Type Culture Collection (ATCC, USA). The MCF-12A breast epithelial cell line (ATCC-CRL-10782) was a gift from Dr Anna-Mart Engelbrecht (Department of Physiology, Stellenbosch University, South Africa).

[2] = test system: MCF-12A non-tumorigenic breast epithelial cell line; test: Resazurin cytotoxicity assay, MCF-12A; assay type: cell-based; conditions: Homo sapiens, MCF-12A cells, 96 hours treatment, read-out: MCF-12A IC50 (μM) ± SD
Experimental: as §1, §2

[3] = test system: HCC70 triple negative breast cancer cells; test: Resazurin cytotoxicity assay, HCC70; assay type: cell-based; conditions: for IC50: Homo sapiens, HCC70 cells, 96 hours treatment, resazurin, read-out: HCC70 IC50 (μM) ± SD; for SI (selectivity index) for HCC70: IC50 against MCF12A cells ÷ IC50 against HCC70 cells
Experimental: as §1, §2

leukemia cells (K562) = test system: leukemia cells (K562); parameters: method as in ref 3, 19 = [3]; doi:10.1039/C2MD20172K; 3 Woods JR , Mo H , Bieberich AA , Alavanja T , Colby DA . Amino derivatives of the sesquiterpene lactone class of natural products as prodrugs . Med.Chem.Comm . 2013; 4 ( 1 ): 27 – 33 . doi: 10.1039 || [19]; 19 Unde NR , Hiremath SV , Kulkarni GH , Kelkar GR . Amino derivatives of sesquiterpenes lactone class of natural products prodrugs . Tetrahedron Lett . 1968; 9 : 4861 – 4862 .; conditions: antiproliferative; cited from earlier work
[4] = test system: colorectal cancer cells (SW-620); parameters: method as in PMID 16766184; conditions: cytotoxicity; cited from earlier work
[5] = test system: colon cancer cells (SW-620); parameters: method as in ref 3 = [3]; doi:10.1039/C2MD20172K; 3 Woods JR , Mo H , Bieberich AA , Alavanja T , Colby DA . Amino derivatives of the sesquiterpene lactone class of natural products as prodrugs . Med.Chem.Comm . 2013; 4 ( 1 ): 27 – 33 . doi: 10.1039; conditions: antiproliferative; cited from earlier work

SMILES	IC50 [1]	SI (selectivity index) for MCF-7 [1]	IC50 [2]	IC50 [3]	SI (selectivity index) for HCC70 [3]	GI50 (leukemia cells (K562))	IC50 [4]	GI50 [5]
C=C1CC[C@@H]2C(=C)CC[C@H]3[C@@H](OC(=O)[C@H]3CNCCN)[C@H]12 [DHLC-4, 13-ethylenediamine dehydrocostus lactone]	4.24 ± 1.29 µM	SI = 34.83	147.7 ± 1.28 µM	2.71 ± 1.3 µM	SI = 54.50	–	–	–
C=C1CC[C@@H]2C(=C)CC[C@H]3[C@@H](OC(=O)[C@H]3CN(CC)CC)[C@H]12 (relative stereo) [DHLC-2, (*3aS,6aR,9aR,9bS*)-3-[(diethylamino)methyl]decahydro-6,9-bis(methylene)azuleno[4,5-b]furan-2(3H)-one]	0.07 µM	SI = 126.86	8.88 ± 1.1 µM	1.48 ± 1.49 µM	SI = 6.00	–	–	–
CC[C@@]1(O)C(=O)OCc2c1cc1n(c2=O)Cc2cc3ccccc3nc2-1 [Camptothecin, reference compound]	104 ± 9.92 µM	–	104.2 ± 1.04 µM	83.2 ± 1.08 µM	–	–	–	–
C=C1CC[C@@H]2C(=C)CC[C@H]3[C@@H](OC(=O)[C@H]3CN(C)C)[C@H]12 [DHLC-1, Guaia-4(15),10(14)-dien-12-oic acid, 13-(dimethylamino)-6-hydroxy-γ-lactone]	0.07 ± 0.07 µM	SI = 121	8.47 ± 1.42 µM	0.64 ± 1.47 µM	SI = 13.23	–	–	–
C=C1C(=O)O[C@@H]2/C=C(\C)CC/C=C(\C)CC[C@@H]12 [costunolide]	–	–	–	–	–	14.5 µM	7.8 µM	7.8 µM
C=C1CC[C@H]2C(=C)CC[C@H]3C(=C)C(=O)O[C@@H]3[C@@H]12 [DHLC, Dehydrocostus lactone, reference compound]	24.7 ± 1.25 µM	–	0.07 ± 0.07 µM	1.11 ± 1.31 µM	SI = 0.06	–	–	–
C=C1CC[C@@H]2C(=C)CC[C@H]3[C@@H](OC(=O)[C@H]3CNCC)[C@H]12 [DHLC-3, Guaia-4(15),10(14)-dien-12-oic acid, 13-(ethylamino)-6-hydroxy-γ-lactone]	–	SI = 8.33	188.2 ± 1.35 µM	3.25 ± 1.36 µM	SI = 57.91	–	–	–
